Counter-ions that a name gives are not always drawn. Like-named read-outs stand apart in the source and are kept apart here.
Key:
[1] = for ln k: converted from log Kobs
Protocol: Specifically, a graph of FIG. 185 on page 95 of the publication was cited. FIG. 1 is an Arrhenius plot of degradation of thiamine hydrochloride in a vitamin complex liquid agent, the Y axis indicates log Kobs (day^−1), and the X axis indicates 1/T (K^1). The stable periods were calculated based on the activation energy for degradation of thiamine hydrochloride in the vitamin complex liquid agent, shown in the graph.
In FIG. 1, the Y axis is indicated by not ln, but log. Therefore log Kobs was converted into ln k.
Then, −Ea/R and ln A were calculated from the ln k and 1/T (K^−1) on the X axis of FIG. 1 based on the Arrhenius equation represented by the formula (1) below.

[2] = degradation in vitamin complex liquid agent, cited from earlier work

Cc1ncc(C[n+]2csc(CCO)c2C)c(N)n1 [thiamine hydrochloride]
ln k ([1]; T 20.0 ° C.): −9.4406 | ln k ([1]; T 22.5 ° C.): −8.635 | ln k ([1]; T 29.1 ° C.): −7.829 | ln k ([1]; T 38.7 ° C.): −6.6775 | ln k ([1]; T 50.0 ° C.): −5.296 | ln k ([1]; T 57.6 ° C.): −4.0986 | ln k ([1]; T 67.7 ° C.): −2.993 | ln A ([1]; intercept b of Arrhenius equation from ln k and 1/T (K^−1)): 35.139 | −Ea/R ([1]; slope a of Arrhenius equation from ln k and 1/T (K^−1)): −13005 | Kobs ([2]; T 20.0 ° C.): 0.000 day⁻¹ | log10k ([2]; T 20.0 ° C.): −4.100 | Kobs ([2]; T 22.5 ° C.): 0.000 day⁻¹ | log10k ([2]; T 22.5 ° C.): −3.750 | Kobs ([2]; T 29.1 ° C.): 0.000 day⁻¹ | log10k ([2]; T 29.1 ° C.): −3.400 | Kobs ([2]; T 38.7 ° C.): 0.001 day⁻¹ | log10k ([2]; T 38.7 ° C.): −2.900 | Kobs ([2]; T 50.0 ° C.): 0.005 day⁻¹ | log10k ([2]; T 50.0 ° C.): −2.300 | Kobs ([2]; T 57.6 ° C.): 0.017 day⁻¹ | log10k ([2]; T 57.6 ° C.): −1.780 | Kobs ([2]; T 67.7 ° C.): 0.050 day⁻¹ | log10k ([2]; T 67.7 ° C.): −1.300

— patent US20120156333A1, “STABILIZED BETA CRYPTOXANTHIN-CONTAINING WATER AND THE USE THEREOF” (ARKRAY, INC., priority 2010, published 2012)
